Data set [1] is described as follows: Rodent pharmacokinetics: oral bioavailability and clearance in male mice. More on the design: species or system mouse. Particulars: in vivo. The protocol: Formulation: 10% DMSO, 90% Saline
Dosing: 10 mg/kg P.O. and 5 mg/kg I.V.
Animals in Group 1 were administered intravenously with Example B solution formulation in 20% Propylene Glycol, 50% of PEG 400 and 30% of (20% HPβCD in water) via tail vein at a dose of 3 mg/kg.
Animals in Group 2 were administered with oral solution formulation of Example B in 20% Propylene Glycol, 50% of PEG 400 and 30% of (20% HPβCD in water) at a dose of 10 mg/kg;
Dosing: 10 mg/kg P.O. and 3 mg/kg I.V.
Animals in Group 1 were administered intravenously with Example G solution formulation in 5% NMP, 5% solutol HS-15 in 90% HPβCD solution (20% HPβCD in RO water) at 3 mg/kg dose.
Animals in Group 2 were administered orally with 10 mg/kg solution formulation of Example G in 5% NMP, 5% solutol HS-15 in 90% HPβCD solution (20% HPβCD in RO water)

The test system of data set [2] is panel of 94 cancer cell lines. In words: Potentiation study #2015030003, SRB proliferation assay. It counts as cell-based. The note with it: 72 h. The protocol: (§1) 48 hours later, cells were treated with 10μL media containing compound at 20× final concentration (resulting in a final DMSO concentration of 0.1%). […] In addition, control plates with cells not exposed to compound were analyzed after 48 hours (time zero, Tz). […] Briefly—after compound treatment, media was aspirated and cells were fixed by addition of 10% TCA.
(§2) Average background optical density (derived from plates and wells containing medium without cells) was subtracted from the optical density values from all controls and treated cells.

The subject of data set [3] is MINO cells (mantle cell lymphoma). In words: SRB proliferation assay (potentiation and concentration matrix studies). It counts as cell-based, human. The note with it: in the presence of 100 nM Compound A, GI50 shift, z-score and/or HSA analysis. The protocol: (§3) Cell lines marked with ‡ were also tested in study #2015030004.
as §1, §2

The test system of data set [4] is PC-3 cells (prostate adenocarcinoma). Described as above. It is filed as cell-based, human. Particulars: PC-3, in the presence of 100 nM Compound A; GI50 shift, z-score and/or HSA analysis. The protocol:
as §3, §1, §2

For data set [5], the system named is LoVo cells (colorectal adenocarcinoma). In words: SRB proliferation assay (potentiation study). It is filed as cell-based, human. Particulars: in the presence of 100 nM Compound A, GI50 shift, z-score and/or HSA analysis. The protocol: as §1, §2
For orientation: In SRB staining, fixed cells bind dye roughly in proportion to their protein.

The next data set has as its target T1, Human HDAC1 (Homo sapiens, UniProt Q13547).
T1 construct: full length with C-terminal His-tag and C-terminal FLAG-tag; His-tag (C); FLAG-tag (C); made in house; host or cells: baculovirus expression system
The data set is described as follows: HDAC biochemical assay with acetylated AMC-labeled peptide substrate. The note with it: read-out: IC50 HDAC 1. The protocol: (§4) Activity against all zinc-dependent HDACs 1 to 11 was assessed by using an acetylated AMC-labeled peptide substrate. The substrate RHKKAc was used for all class I and IIb HDACs; for HDAC8, the substrate used was RHKAcKAc. […] All assays were based on the AMC-labeled substrate and developer combination.
(§5) The protocol involved a two-step reaction: first, the substrate with the acetylated lysine side chain is incubated with a sample containing HDAC activity, to produce the deacetylated products, which are then digested in the second step by the addition of developer to produce the fluorescent signal proportional to the amount of deacetylated substrates.
Human HDAC1 (GenBank Accession No. NM_004964), full length with C-terminal His-tag and C-terminal FLAG-tag, MW=56 kDa, expressed in baculovirus expression system.
(§6) Before use, 1 mg/mL BSA and DMSO are added.
(§7) Incubate for 2 hours at 30° C.
(§8) Fluorescence background signal is then subtracted from compound data signal.
(§9) Stage 1: Deacetylation of substrate by incubation of HDAC enzymes with compounds
(§10) Stage 2: Development by addition of Developer to digest the deacetylated substrate, and generate the fluorescent color; Detection: 360/460 Ex/Em

For the next data set, the target named is T2, Recombinant human HDAC6 (Homo sapiens, UniProt Q9UBN7).
T2 construct: GST (N); made in house; host or cells: Sf9 insect cells (baculovirus)
T2 sequence (Q9UBN7 1-1215): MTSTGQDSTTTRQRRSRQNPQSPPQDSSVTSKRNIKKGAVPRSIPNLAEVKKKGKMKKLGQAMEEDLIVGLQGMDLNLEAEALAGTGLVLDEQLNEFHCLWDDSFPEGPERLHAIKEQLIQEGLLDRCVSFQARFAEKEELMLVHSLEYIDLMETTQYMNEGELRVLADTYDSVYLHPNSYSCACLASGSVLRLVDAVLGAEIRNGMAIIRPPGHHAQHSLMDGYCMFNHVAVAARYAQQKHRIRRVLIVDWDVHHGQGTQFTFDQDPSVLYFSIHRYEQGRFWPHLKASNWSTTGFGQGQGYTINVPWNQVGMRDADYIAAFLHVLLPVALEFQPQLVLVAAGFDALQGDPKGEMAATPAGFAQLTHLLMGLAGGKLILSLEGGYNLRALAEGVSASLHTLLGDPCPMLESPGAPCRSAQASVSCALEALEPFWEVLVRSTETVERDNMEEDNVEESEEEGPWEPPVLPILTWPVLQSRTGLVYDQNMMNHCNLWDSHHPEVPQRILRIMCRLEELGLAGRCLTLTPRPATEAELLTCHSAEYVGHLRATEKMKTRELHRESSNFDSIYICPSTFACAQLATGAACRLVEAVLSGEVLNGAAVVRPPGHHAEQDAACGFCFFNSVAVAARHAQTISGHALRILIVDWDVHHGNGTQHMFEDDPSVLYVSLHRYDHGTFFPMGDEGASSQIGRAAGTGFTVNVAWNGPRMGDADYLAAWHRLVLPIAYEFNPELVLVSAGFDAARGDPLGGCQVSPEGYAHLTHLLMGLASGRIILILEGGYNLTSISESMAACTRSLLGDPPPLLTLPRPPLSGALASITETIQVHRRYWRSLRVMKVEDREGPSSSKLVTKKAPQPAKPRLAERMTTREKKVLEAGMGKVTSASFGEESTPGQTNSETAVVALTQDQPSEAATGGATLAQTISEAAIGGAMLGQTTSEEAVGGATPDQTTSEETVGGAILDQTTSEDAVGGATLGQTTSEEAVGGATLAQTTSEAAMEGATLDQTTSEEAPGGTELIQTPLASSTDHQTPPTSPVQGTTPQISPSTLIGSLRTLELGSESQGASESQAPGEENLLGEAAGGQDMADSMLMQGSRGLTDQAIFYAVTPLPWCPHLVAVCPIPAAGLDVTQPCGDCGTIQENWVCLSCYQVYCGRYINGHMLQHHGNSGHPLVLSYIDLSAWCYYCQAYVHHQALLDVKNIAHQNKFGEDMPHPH
The description is as above. The note with it: read-out: IC50 HDAC 6. The protocol: as §4, §5
Human HDAC5 (GenBank Accession No. NM_005474), full length with N-terminal GST tag, MW=150 kDa, expressed in baculovirus expression system. Recombinant human HDAC6 (GenBank Accession No. BC069243), full length, MW=180 kDa, was expressed by baculovirus in Sf9 insect cells using an N-terminal GST tag.
as §6, §7, §8, §9, §10

Like-named read-outs stand apart in the source and are kept apart here. Some results are limits rather than exact numbers.

Data on 13 compounds can be found in patent US20180243317A1, “COMPOSITIONS COMPRISING A PI3K INHIBITOR AND AN HDAC INHIBITOR” (KARUS THERAPEUTICS LTD, priority 2015, published 2018).

T1 sequence (Q13547 whole entry): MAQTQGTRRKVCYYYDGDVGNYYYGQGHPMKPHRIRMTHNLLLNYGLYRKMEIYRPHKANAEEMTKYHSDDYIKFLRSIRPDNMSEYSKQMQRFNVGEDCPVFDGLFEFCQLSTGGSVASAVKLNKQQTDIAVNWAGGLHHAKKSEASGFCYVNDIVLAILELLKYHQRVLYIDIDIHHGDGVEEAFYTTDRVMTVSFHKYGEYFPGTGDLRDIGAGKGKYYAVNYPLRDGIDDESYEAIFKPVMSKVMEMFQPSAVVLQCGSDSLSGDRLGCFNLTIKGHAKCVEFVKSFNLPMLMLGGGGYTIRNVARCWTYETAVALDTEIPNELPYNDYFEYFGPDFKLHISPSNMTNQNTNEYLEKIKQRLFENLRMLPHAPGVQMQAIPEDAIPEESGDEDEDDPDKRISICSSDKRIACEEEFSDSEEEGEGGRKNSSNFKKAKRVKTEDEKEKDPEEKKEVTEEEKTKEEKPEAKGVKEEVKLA

Consider `c1cc(-c2nc(N3CCOCC3)c3oc4ncc(CN5C[C@@H]6C[C@H]5CO6)cc4c3n2)c2cc[nH]c2c1` [A], for which, in data set [1] (male, CD1, mouse), the F is 73.77%. Further, the clearance in data set [1] (male, CD1, mouse, iv, 5 mg/kg) was 21.12 mL/min/kg; in data set [1] (male, mouse, iv), 21 mL/min/kg. For the same compound, the “Oral Bioavailability (F)” value in data set [1] (male, mouse, po, 10 mg/kg) is recorded as 74.
For the compound `c1cc(-c2nc(N3CCOCC3)c3oc4ncc(CN5CCC6(CC5)COC6)cc4c3n2)c2cc[nH]c2c1` [B], in data set [1] (mouse), the F is reported as 74%. In addition, in data set [1] (mouse, iv, 3 mg/kg), the AUC(0-t) – broadly, the area under the concentration-time curve up to a stated or last time point – amounted to 1510 ng·h/mL; the AUCinf came to 1512.20 ng·h/mL; the Cmax – broadly, the peak of the concentration-time curve – was 621.42 ng/mL; the Vss worked out at 5.51 L/kg. In data set [1] (mouse, iv, 3 mg/kg), this compound showed a clearance of 33.06 mL/min/kg and a t1/2 of 1.23 h. Besides, in data set [1] (mouse, po, 10 mg/kg), the AUC(0-t) stood at 3730 ng·h/mL and the AUCinf was 4103.86 ng·h/mL.
`O=C(NO)c1ccc(CN(c2cnccn2)c2cnccn2)cc1` [Example GG, 4-{[Bis(pyrazin-2-yl)amino]methyl}-N-hydroxybenzamide]: the GI50 – broadly, the concentration at which growth is held to half of that of the control – in data set [2] (Compound GG alone, read-out: GI50 values for the individual cell lines (range)) was 4.7 to 33 µM; in data set [2] (Compound GG alone, read-out: mean (±s.e.m) GI50 value across the whole panel), 17.3 µM; in data set [2] (Compound GG in the presence of 100 nM Compound A, read-out: GI50 values for the individual cell lines (range)), 1.7 to 35 µM; in data set [2] (Compound GG in the presence of 100 nM Compound A, read-out: mean (±s.e.m) GI50 value across the whole panel), 14.1 µM. For the same compound, the “potentiation of the pharmacological activity of Compound GG by Compound A” value in data set [3], in data set [4] and in data set [5] was “potentiate” throughout.
Regarding `c1cc(-c2nc(N3CCOCC3)c3oc4ncc(CN5CCCCC5)cc4c3n2)c2cc[nH]c2c1` [Example I in WO2011/021038, reference compound], the “Oral Bioavailability (F)” value in data set [1] (male, mouse, po, 10 mg/kg) stood at 28.
As to `Cc1nsc(N(Cc2ccc(C(=O)NO)cc2)c2ccc(F)cn2)n1` [Example R, 4-(((5-Fluoropyridin-2-yl)(3-methyl-1,2,4-thiadiazol-5-yl)amino)methyl)-N-hydroxybenzamide], the IC50 (commonly the concentration needed to halve the response being measured) is above 10 µM at Human HDAC1 and at most 0.5 µM on Recombinant human HDAC6.
For `Cc1nsc(N(Cc2ccc(C(=O)NO)cc2)c2cc(-c3ccc(F)cc3)ccn2)n1` [Example S, 4-(((4-(4-Fluorophenyl)pyridin-2-yl)(3-methyl-1,2,4-thiadiazol-5-yl)amino)methyl)-N-hydroxybenzamide], in that order: above 10 µM and 1 to 10 µM.
For `O=C(NO)c1ccc(CN(c2ccc(F)cn2)c2nc(C(F)(F)F)ns2)cc1` [Example T, 4-(((5-Fluoropyridin-2-yl)(3-(trifluoromethyl)-1,2,4-thiadiazol-5-yl)amino)methyl)-N-hydroxybenzamide], in that order: above 10 µM and 1 to 10 µM.
For `O=C(NO)c1ccc(CN(c2cnccn2)c2cc(-c3ccc(F)cc3)ccn2)cc1` [Example U, 4-(((4-(4-Fluorophenyl)pyridin-2-yl)(pyrazin-2-yl)amino)methyl)-N-hydroxybenzamide], in that order: 1 to 10 µM and at most 0.5 µM.
Consider `O=C(NO)c1ccc(CN(c2ccccn2)c2nc(C(F)(F)F)ns2)cc1` [Example W, N-Hydroxy-4-((pyridin-2-yl(3-(trifluoromethyl)-1,2,4-thiadiazol-5-yl)amino)methyl)benzamide], for which the IC50 was above 10 µM on Human HDAC1 and at most 0.5 µM on Recombinant human HDAC6.
As for `COc1cccnc1N(Cc1ccc(C(=O)NO)cc1)c1ccc(C)cn1` [Example X, N-Hydroxy-4-(((3-methoxypyridin-2-yl)-(5-methylpyridin-2-yl)amino)methyl)benzamide], the IC50 at Human HDAC1 is above 10 µM; on Recombinant human HDAC6, at most 0.5 µM.
Regarding `COc1ccc(N(Cc2ccc(C(=O)NO)cc2)c2ccc(C)cn2)nc1` [Example Y, N-Hydroxy-4-(((5-methoxypyridin-2-yl)(5-methylpyridin-2-yl)amino)methyl)benzamide], the IC50 was above 10 µM at Human HDAC1 and at most 0.5 µM on Recombinant human HDAC6.
For `COc1cccnc1N(Cc1ccc(C(=O)NO)cc1)c1ccc(N2CCOCC2)cn1` [Example Z, N-Hydroxy-4-(((3-methoxypyridin-2-yl)(5-morpholinopyridin-2-yl)amino)methyl)benzamide], in that order: above 10 µM and at most 0.5 µM.
In data set [1] (male, Balb/c, mouse), `c1cc(-c2nc(N3CCOCC3)c3oc4ncc(CN5CCC56COC6)cc4c3n2)c2cc[nH]c2c1` [G] showed an F of 30%. The clearance in data set [1] (male, mouse, summary table, mice, IV, read-out: Clearance) was determined as 26 mL/min/kg.
